In PMC7688903 (Frontiers in Microbiology, 2020):
Values after ≈ are worked out from the molar mass of the structure shown. “Also recorded” adds a separate entry of the source. Where a SMILES comes first, the peptide text is derived from it. Where no end group is shown, it is not given here. [ ]: non-standard residue; d: D form. hArg = N=C(N)NCCCC[C@H](N)C(=O)O; 2Thi = N[C@@H](Cc1cccs1)C(=O)O; Aib = CC(C)(N)C(=O)O

How the values were obtained:
Trypsin = test: trypsin in 0.1 M NH4HCO3 buffer (pH 8.2); settings: 37°C, up to 24 h
[1] = plasma from healthy volunteers; settings: human, 37°C, up to 36 h
E. coli ATCC 25922 = assay type: cell-based, Escherichia coli; settings: ATCC 25922, 20 h
Experimental: (§1) The antimicrobial activities of the peptides were tested against E. coli ATCC 25922, P. aeruginosa ATCC 27853, carbapenem-resistant P. aeruginosa SIPI-012, A. baumannii ATCC 19606, carbapenem-resistant A. baumannii SIPI-025, S. aureus ATCC 25923, and C. albicans ATCC 10231. The minimum inhibitory concentration (MIC) values were determined using the microdilution method according to Clinical and Laboratory Standards Institute guidelines ([CLSI, 2008], [2012]). The peptides were dissolved in 10 mM PB to a concentration of 1280 μg/mL as stock solutions.
(§2) For inoculum preparation of bacteria, morphologically similar colonies selected from fresh MH agar plates were transferred using a loop into approximately 10 mL of MH broth in a capped test tube and vortexed. The suspension was adjusted with MH broth to achieve a turbidity equivalent to a 0.5 McFarland standard (BaSO4 solution prepared spectrophotometrically). A working suspension was prepared by making a 1:15 dilution followed by a 1:20 dilution of the stock suspension with MH broth medium to obtain approximately 5 × 10^5 CFU/mL. For inoculum preparation of yeast, five fresh colonies of approximately 1 mm diameter were picked from 24-hour-old cultures of C. albicans and suspended in 5 mL of sterile 0.85% saline. The resulting suspension was vortexed and the cell density was adjusted by adding sufficient sterile saline to achieve a turbidity equivalent to a 0.5 McFarland standard. A working suspension was prepared by making a 1:100 dilution followed by a 1:20 dilution of the stock suspension with RPMI 1640 broth medium to obtain 0.5 × 10^3 to 2.5 × 10^3 CFU/mL. Intermediate twofold dilutions of the peptides were prepared in MH broth and RPMI 1640 medium, and 90 μL aliquots were added to each well in addition to 10 μL of the inoculum prepared above.
(§3) Each plate included a growth control well and a sterility (uninoculated) control well. Colistin, vancomycin hydrochloride, and amphotericin B were used as positive controls for gram-negative bacteria, gram-positive bacteria, and fungi, respectively. The bacterial and fungal plates were incubated at 37°C for 20 h and 35°C for 48 h, respectively, both under ambient atmosphere. The inhibition of microbial growth was assessed visually. The MICs were determined from independent triplicate assays.

C. albicans ATCC 10231 = test: microbe, parasite or virus in culture; assay type: cell-based, Candida albicans; settings: ATCC 10231, 48 h
Experimental: as §1, §2, §3

human plasma proteases = test: in vitro
Experimental: The peptides were mixed with plasma from healthy volunteers to a final concentration of 0.1 mg/mL and incubated at 37°C. Aliquots (20 or 40 μL) were removed after 0, 2, 4, 6, 8, 12, 24, and 36 h, mixed with 0.05% TFA to a final concentration of 0.01 mg/mL, and incubated on ice for 10 min. After centrifugation (12,000 × g, 5 min), the supernatant was stored at −20°C. The samples were analyzed as described in section “Hydrophobicity” and quantified as described in section “Stability Toward Tryptic Degradation.” All stability tests were performed at least in triplicate. The identities of the metabolites after 12 h of degradation by plasma proteases were determined by LC-MS on a Waters Acquity UPLC-QDa system.

RAW 264.7 cells = test: Cell viability assay (MTT); assay type: cell-based, mouse; settings: 1–128 μM peptide in DMEM with 4% FBS, 42 h, 595 nm, triplicate
Experimental: The peptides were dissolved in ddH2O to a concentration of 256 μM. RAW 264.7 cells were cultured in 100 μL of DMEM containing 10% FBS and seeded at a density of 1 × 10^4 cells in a 96-well culture plate. The plate was incubated at 37°C under 5% CO2 atmosphere overnight. After attaining 80% confluency, the cells were treated with various concentrations of the peptides (1–128 μM) dissolved in DMEM containing 4% FBS for 42 h. Cytotoxicity was determined using the MTT tetrazolium reduction assay and quantified spectrophotometrically at 595 nm using a SpectraMax i3x microplate reader. The cell viability was calculated with respect to control samples treated only with DMEM containing 4% FBS ([Khara et al., 2016]). Each test was done in triplicate and the concentration required for 50% inhibition of viability (IC50) was determined.

P. aeruginosa ATCC 27853 = assay type: cell-based, Pseudomonas aeruginosa; settings: ATCC 27853, 20 h
Experimental: as §1, §2, §3

[2] = tested on: carbapenem-resistant P. aeruginosa (CRPA) SIPI-012; assay type: cell-based, Pseudomonas aeruginosa; settings: carbapenem-resistant (CRPA) SIPI-012, 20 h
Experimental: as §1, §2, §3

human erythrocytes = test: Hemolytic activity assay; assay type: cell-based; settings: human RBC in PB, 37°C, 1 h, OD420, total lysis control 0.1% SDS, three technical replicates
Experimental: Whole blood was obtained from a healthy volunteer. The red blood cells (RBC) were then centrifuged (800 × g, 10 min), washed twice with PB, resuspended in 1 mL of PB, and incubated with various concentrations of the peptides (32–128 μM) at 37°C for 1 h. As a positive control, total lysis of the RBC was accomplished by incubation with 0.1% SDS. For each condition, three technical replicates were performed. After incubation, the RBC were centrifuged at 800 × g for 10 min and the amount of hemoglobin released into the supernatant was determined by measuring the optical density OD420 using a SpectraMax i3x microplate reader (Molecular Devices) ([Zaet et al., 2017]).

A. baumannii ATCC 19606 = assay type: cell-based, Acinetobacter baumannii; settings: ATCC 19606, 20 h
Experimental: as §1, §2, §3

[3] = tested on: carbapenem-resistant A. baumannii (CRAB) SIPI-025; assay type: cell-based, Acinetobacter baumannii; settings: carbapenem-resistant (CRAB) SIPI-025, 20 h
Experimental: as §1, §2, §3

S. aureus ATCC 25923 = test: microbe, parasite or virus in culture; assay type: cell-based, Staphylococcus aureus; settings: ATCC 25923, 20 h
Experimental: as §1, §2, §3

[4] = tested on: proteases secreted by S. aureus ATCC 25923; test: in vitro; settings: Staphylococcus aureus, S. aureus ATCC 25923 culture supernatant, pH 8
Experimental: The stabilities of the peptides toward proteases secreted by E. coli ATCC 25922, P. aeruginosa ATCC 27853, A. baumannii ATCC 19606, S. aureus ATCC 25923, and C. albicans ATCC 10231 were also examined. Microbial supernatants were prepared by resuspending single colonies of each strain in 20 mL of an appropriate culture medium followed by incubation at 37°C overnight. MH broth and 2% tryptone/2% dextrose were used as the culture media for bacteria and yeast, respectively. Each culture was then centrifuged at 12,000 × g for 10 min and the supernatant was adjusted to pH 8.0 with HCl or NaOH and then filtered through a 0.22 μm sterile filter membrane ([Zaet et al., 2017]). The peptides were then dissolved in the filtered supernatants to a concentration of 0.5 mg/mL, and the peptide-free supernatants were used as negative controls. The samples were incubated at 37°C for 24 h in a water bath and then analyzed by RP-HPLC as described above.

Compound | fragment found (Trypsin) | fragment found [1] | MIC (E. coli ATCC 25922) [µg/mL] | MIC (C. albicans ATCC 10231) [µg/mL] | metabolised at 2 h, 0.1 mg/mL (human plasma proteases) [%] | metabolised at 4 h, 0.1 mg/mL (human plasma proteases) [%] | IC50 (RAW 264.7 cells) [µM] | MIC (P. aeruginosa ATCC 27853) [µg/mL] | MIC [2] [µg/mL] | Hemolysis rate (%) (human erythrocytes; 64 μM) | Hemolysis rate (%) (human erythrocytes; 128 μM) | MIC (A. baumannii ATCC 19606) [µg/mL] | MIC [3] [µg/mL] | MIC (S. aureus ATCC 25923) [µg/mL] | remaining at 24 h, 0.5 mg/mL [4] [%]
[Aib]RLFKKLLKYLRK[2Thi] | (K) KLLK (Y) 6–9, major, 18 h; also recorded: (R) LFKK (L) 3–6, major, 18 h; also recorded: (K) LLK (Y) 7–9, major, 18 h; also recorded: (K) YLR (K) 10–12, major, 18 h; also recorded: (R) LFK (K) 3–5, major, 18 h | (R) LFKKLLKYLRKThi 3–14, major, 12 h |  |  |  |  |  |  |  |  |  |  |  |  | 
KRLFKKLLKYLRKF | (R) LFK (K) 3–5, major, 18 h; also recorded: (K) LLK (Y) 7–9, major, 18 h; also recorded: (K) YLR (K) 10–12, major, 18 h; also recorded: (K) KLLK (Y) 6–9, major, 18 h; also recorded: (R) LFKK (L) 3–6, major, 18 h | (R) LFKKLLKYLRKF 3–14, major, 12 h; also recorded: (K) RLFKKLLKYLRKF 2–14, major, 12 h |  |  |  |  |  |  |  |  |  |  |  |  | 
DabRLThiDapDabLLDabYLHorDabF | (Dab) RLThiDapDabLLDab (Y) 2–9, major, 18 h; also recorded: (R) LThiDapDabLLDabYLHor (Dab) 3–12, major, 18 h | (R) LThiDapDabLLDabYLHorDab F 3–14, major, 12 h; also recorded: (Dab) RLThiDapDabLLDabYLHorDabF 2–14, major, 12 h |  |  |  |  |  |  |  |  |  |  |  |  | 
RRIFKRLFKYLRRF | (R) RF 13–14, major, 18 h; also recorded: (K) YLRR (F) 10–13, major, 18 h; also recorded: (R) F 14, major, 18 h; also recorded: (K) YLR (R) 10–12, major, 18 h | (R) IFKRLFKYLRRF 3–14, major, 12 h; also recorded: (R) RIFKRLFKYLRRF 2–14, major, 12 h |  |  |  |  |  |  |  |  |  |  |  |  | 
KRLFKRLFKYLRRF | (R) RF 13–14, major, 18 h; also recorded: (K) YLRR (F) 10–13, major, 18 h; also recorded: (R) F 14, major, 18 h; also recorded: (K) YLR (R) 10–12, major, 18 h | (K) YLRRF 10–14, major, 12 h; also recorded: (K) RLFKRLFKYLRRF 2–14, major, 12 h |  |  |  |  |  |  |  |  |  |  |  |  | 
CC(C)C[C@H](NC(=O)[C@H](CCCCN)NC(=O)[C@H](CCCCN)NC(=O)[C@H](Cc1ccccc1)NC(=O)[C@H](CC(C)C)NC(=O)[C@H](CCCNC(=N)N)NC(=O)[C@@H](N)CCCCN)C(=O)N[C@@H](CC(C)C)C(=O)N[C@@H](CCCCN)C(=O)N[C@@H](Cc1ccc(O)cc1)C(=O)N[C@@H](CC(C)C)C(=O)N[C@@H](CCCNC(=N)N)C(=O)N[C@H](CCCCN)C(=O)N[C@@H](Cc1ccccc1)C(N)=O [DP03] (H-KRLFKKLLKYLR[dK]F-NH2) |  |  | 1 (≈ 0.532 µM) | 4 (≈ 2.13 µM) | > 40 | > 50 | 45 ± 5.96 | 1 (≈ 0.532 µM) | 8 (≈ 4.25 µM) | 41.96 ± 4.14 | 51.55 ± 3.89 | 2 (≈ 1.06 µM) | 2 (≈ 1.06 µM) | 1 (≈ 0.532 µM) | 73.5 ± 4.83
DapHorLFDapDapLLDabYLHorDabThi | (Dap) HorLFDap (Dap) 2–5, major, 18 h; also recorded: DapHorLFDapDapLLDab (Y) 1–9, major, 18 h; also recorded: DapHorLFDapDapLLDabYLHor (Dab) 1–12, major, 18 h; also recorded: (Dap) HorLFDapDapLLDabYLHorDabThi 2–14, major, 18 h | (Dap) HorLFDapDapLLDabYLHorDabThi 2–14, major, 12 h |  |  |  |  |  |  |  |  |  |  |  |  | 
KRL[2Thi]KKLLKYLRK[2Thi] | (K) Thi 14, major, 18 h; also recorded: (R) LThiKK (L) 3–6, major, 18 h; also recorded: (K) KLLK (Y) 6–9, major, 18 h; also recorded: (K) LLK (Y) 7–9, major, 18 h; also recorded: (K) YLR (K) 10–12, major, 18 h; also recorded: (R) LThiK (K) 3–5, major, 18 h | (R) LThiKKLLKYLRKThi 3–14, major, 12 h; also recorded: (K) RLThiKKLLKYLRKThi 2–14, major, 12 h |  |  |  |  |  |  |  |  |  |  |  |  | 
CC(C)C[C@H](NC(=O)[C@H](Cc1ccc(O)cc1)NC(=O)[C@H](CCCCN)NC(=O)[C@H](CC(C)C)NC(=O)[C@H](CC(C)C)NC(=O)[C@@H](CCCCN)NC(=O)[C@@H](CCCCN)NC(=O)[C@H](Cc1ccccc1)NC(=O)[C@H](CC(C)C)NC(=O)[C@H](CCCNC(=N)N)NC(=O)[C@@H](N)CCCCN)C(=O)N[C@@H](CCCNC(=N)N)C(=O)N[C@H](CCCCN)C(=O)N[C@@H](Cc1ccccc1)C(N)=O [DP04] (H-KRLF[dK][dK]LLKYLR[dK]F-NH2) |  |  | 1 (≈ 0.532 µM) | 4 (≈ 2.13 µM) | > 40 | > 50 | 34.7 ± 3.69 | 1 (≈ 0.532 µM) | 4 (≈ 2.13 µM) | 38.84 ± 1.61 | 58.26 ± 1.84 | 2 (≈ 1.06 µM) | 1 (≈ 0.532 µM) | 0.5 (≈ 0.266 µM) | 63.7 ± 8.1
CC(C)C[C@H](NC(=O)[C@H](Cc1ccc(O)cc1)NC(=O)[C@H](CCCCN)NC(=O)[C@H](CC(C)C)NC(=O)[C@H](CC(C)C)NC(=O)[C@H](CCCCN)NC(=O)[C@H](CCCCN)NC(=O)[C@H](Cc1ccccc1)NC(=O)[C@H](CC(C)C)NC(=O)[C@H](CCCNC(=N)N)NC(=O)[C@@H](N)CCCCNC(=N)N)C(=O)N[C@@H](CCCNC(=N)N)C(=O)N[C@@H](CCCCN)C(=O)N[C@@H](Cc1cccs1)C(N)=O [UP10] (H-[hArg]RLFKKLLKYLRK[2Thi]-NH2) |  |  | 2 (≈ 1.04 µM) | 4 (≈ 2.07 µM) | > 40 | > 50 | 22.8 ± 4.65 | 1 (≈ 0.519 µM) | 4 (≈ 2.07 µM) | 56.82 ± 2.62 | 95.02 ± 1.84 | 2 (≈ 1.04 µM) | 2 (≈ 1.04 µM) | 0.5 (≈ 0.259 µM) | 31.6 ± 7.81
